Here are results for one compound from patent US20130023504A1, “Modulation of Prostaglandin/Cyclooxygenase Metabolic Pathways” (HUNTER-FLEMING LIMITED, priority 2006, published 2013).

Marks after values point to notes of the source that are not given here.

One assay deals with COX-2 mRNA. Briefly: COX-2 mRNA in human PBMC with and without TNF-α, quantitative RT-PCR. It counts as cell-based. The procedure: (§1) Whole blood was collected from donors in EDTA-supplemented pouches at the Etablissement Français du Sang (Brest, France). The PBMC were isolated then from whole blood under sterile conditions within 36 hours after collection. Gradient density centrifugation was carried out on Ficoll (Eurobio). After washing in RPMI 1640 medium (Eurobio), cells were suspended in RPMI 1640 medium supplemented with 10% heat-inactivated fetal calf serum (Eurobio), 2 mM glutamine (D. Dutscher), 100 U of penicillin/ml (D. Dutscher), and 100 μg of streptomycin/ml (D. Dutscher). Monocytes were selected by plastic adherence for 1 h and approximately 10^7 cells were plated in 6-well tissue culture plates (3 mL medium per well). All incubations were performed in a humidified incubator at 37° C. and 5% CO2. Cells were recovered and dispersed in 2 ml fresh incubation medium supplemented with either 7β-hydroxyEPIA, 7β-hydroxy-DHEA, or 7α-hydroxy-DHEA (in 20 μL ethanol) in the presence or absence of 0.01 μg/mL TNF-α (Sigma-Aldrich). Control incubations contained 20 μl ethanol but no steroid. Supernatants were collected after 4 h and 24 hours incubations for measurement of their PG contents and cells were used for subsequent RNA isolation. A single step extraction method using the Trizol Reagent (Invitrogen, Cergy-Pontoise, France) provided total RNA.
(§2) cDNAs were synthesized from TURBO DNase I—treated RNA (Ambion, Huntingdon, UK) using the Superscript first strand synthesis system kit (Invitrogen). RT-PCR amplification mixtures (50 μL) contained 2.5× RealMaster Mix/20×SYBR solution (11.25 μL) (Eppendorf, Le Pecq, France) and 200 nM forward and reverse primers. Reactions were run on a RealPlex ep gradient S mastercycler (Eppendorf). The cycling conditions were 10 minutes at 95° C. and 45 cycles at 95° C., 55° C. and 68° C. for 15 seconds, 30 seconds and 30 seconds, respectively. Each assay included a standard curve of four serial dilution points of control cDNA. The HPRT1 housekeeping gene was used for quantification. All oligonucleotide primers (Table 2) were synthesized by Genecust/Distribio (Evry, France). The specificity of the amplified product was monitored by examining the melting curve of the product and confirmed by analysis on agarose gel electrophoresis.
(§3) All assays were carried out in triplicate and results were plotted as mean±S.E.M. One-way analysis of variance was performed followed by Duncan's multiple range tests in order to compare the differences between groups. Differences were considered statistically significant when p<0.05.

The subject of another assay is m-PGES1 mRNA. Kind of assay: m-PGES1 mRNA in human PBMC with and without TNF-α, quantitative RT-PCR. It counts as cell-based. How it is done: as §1, §2, §3
[1] abbreviates: 100 nM + TNF-α (10 ng/mL), 24 h.

Take `CC12CCC3C(C1CCC2=O)[C@@H](O)C[C@H]1C[C@@H](O)CCC31C` (stereo partly drawn) [Compound 7β-OH-EPIA, 7β-hydroxy-EPIAndrosterone]: the “COX-2 (mRNA), mRNA production relative to controls” value with COX-2 mRNA (1 nM + TNF-α (10 ng/mL), 4 h) is given as 7.39 ± 0.282^c; with COX-2 mRNA (1 nM + TNF-α (10 ng/mL), 24 h) it was 2.74 ± 0.555^c; with COX-2 mRNA (1 nM, 4 h, without TNF-α) it was 0.56 ± 0.072^b; in the assay with COX-2 mRNA (1 nM, 24 h, without TNF-α) it was 0.82 ± 0.27^b; in the assay on COX-2 mRNA (10 nM + TNF-α (10 ng/mL), 4 h) it was 2.75 ± 0.147^d; in the assay on COX-2 mRNA (10 nM + TNF-α (10 ng/mL), 24 h), 0.94 ± 0.194^d. The “COX-2 (mRNA), mRNA production relative to controls” value in the assay with COX-2 mRNA (10 nM, 4 h, without TNF-α) is on record as 0.94 ± 0.048; with COX-2 mRNA (10 nM, 24 h, without TNF-α) it was 1.66 ± 0.408; in the assay on COX-2 mRNA (100 nM + TNF-α (10 ng/mL), 4 h), 5.76 ± 0.660; in the assay on COX-2 mRNA (setting [1]), 0.67 ± 0.132^d; in the assay with COX-2 mRNA (100 nM, 4 h, without TNF-α), 1.10 ± 0.108; with COX-2 mRNA (100 nM, 24 h, without TNF-α) it was 1.05 ± 0.214. Besides, the “mPGES1 (mRNA), mRNA production relative to controls” value in the assay on m-PGES1 mRNA (1 nM + TNF-α (10 ng/mL), 4 h) is reported as 1.11 ± 0.235; in the assay on m-PGES1 mRNA (1 nM + TNF-α (10 ng/mL), 24 h), 21.6 ± 4.28^; with m-PGES1 mRNA (1 nM, 4 h, without TNF-α) it was 0.76 ± 0.053^b; in the assay on m-PGES1 mRNA (1 nM, 24 h, without TNF-α) it was 1.77 ± 0.324^a; in the assay with m-PGES1 mRNA (10 nM + TNF-α (10 ng/mL), 4 h) it was 1.15 ± 0.183; in the assay on m-PGES1 mRNA (10 nM + TNF-α (10 ng/mL), 24 h) it was 6.29 ± 1.131^d. The “mPGES1 (mRNA), mRNA production relative to controls” value is 0.94 ± 0.067 with m-PGES1 mRNA (10 nM, 4 h, without TNF-α); 3.61 ± 0.662^a in the assay on m-PGES1 mRNA (10 nM, 24 h, without TNF-α); 1.29 ± 0.323 in the assay on m-PGES1 mRNA (100 nM + TNF-α (10 ng/mL), 4 h); 6.79 ± 2.898^d in the assay on m-PGES1 mRNA (setting [1]); 0.71 ± 0.058^b in the assay on m-PGES1 mRNA (100 nM, 4 h, without TNF-α); 2.63 ± 0.475^a with m-PGES1 mRNA (100 nM, 24 h, without TNF-α).
